Data: patent US20260022098A1, “BULLEYACONITINE A DERIVATIVE WITH ANALGESIC ACTIVITY, AND PREPARATION METHOD AND APPLICATION THEREOF” (priority 2023, published 2026)

Experiments:
Kunming mice [1] = test: Acute toxicity / median lethal dose (LD50) determination, subcutaneous injection; assay type: in vivo; design: key to Acute toxicity: if death occurred, (+) represented as positive; if no death occurred, (−) represented as negative; conditions: mice administered 20 mg/kg subcutaneously, presence of death within 24 h
Protocol: (§1) The experimental animals were Kunming mice (male:female=1:1), weighed 22+2 g, which were provided by Chengdu dossy experimental animals Co., ltd., China. The mice were kept in the animal room of the School of Life Science and Engineering, Southwest Jiaotong University, where the animal room was set at a temperature of 23±2° C., a humidity of […] and a photoperiod of 16:8 h (L:D). Before the experiment, the mice were freely fed for 2-3 days with water and feed to adapt to the new environment. Then, the mice were treated by water and food fasting for 12 h. 10 animals were allocated to each group to ensure that there are at least 6 sets of valid data in each group. The animal experiments were carried out in strict accordance with the national regulations on the management of experimental animals.
(§2) The compounds prepared in the examples provided herein (test sample set) and bulleyaconitine A (positive control set) were all dissolved with 0.1 mol/L HCl according to a molar ratio of 1:1, and then diluted with physiological saline to a concentration to be determined. Blank control was physiological saline containing 0.1 mol/L HCl. The animals in the control groups were subjected to the same treatment as those in experimental groups except that samples to be test were replaced with physiological saline.
(2) Median Lethal Dose (LD50) Determination
The sample to be tested was dissolved with 0.1 mol/L HCl according to the amount of the substance ratio of 1:1, and diluted with physiological saline according to the required concentration. 10 mice in each group were randomly selected, half of which were male and half of which were female, and were placed in independent cages. Each mouse was injected subcutaneously with different sample solutions to be tested according to a dose of 0.1 mL/10 g body weight. In the preliminary toxicity experiment, the measured concentration was 20 mg/kg, and then based on the survival rate of the experimental animals in the preliminary experiment, the sample to be tested was set to at least 5 groups with different concentration dose according to the proportional series. The survival rate of mice within 24 h was recorded. The obtained dose-survival rate data was input into the SPSS software (version 17.2), and the LD50 of the sample was calculated according to the Probit regression method.

Kunming mice [2] = test: Analgesic activity by acetic acid-induced writhing method (writhing inhibition rate, ED50); assay type: in vivo; conditions: Mus musculus, sc, read-out: Analgesia rate (%) ± SEM
Protocol: as §1, §2
(1) Determination of Analgesic Activity Through an Acetic Acid-Induced Writhing Method
10 mice were randomly selected, male:female=1:1, were placed in independent cages. Each mouse was injected subcutaneously with the sample solution mentioned above at a dose of 0.1 mL/10 g body weight. After 15 min, a 0.7% acetic acid solution was intraperitoneally injected. A number of writhing reactions in each mouse within 15 minutes was recorded. The group that the mice were injected with physiological saline subcutaneously was the blank group; the group that the mice were injected with the sample to be tested was the experimental group; and the group that the mice were injected with bulleyaconitine A was the positive group. The analgesic activity was represented by a percentage of the reduced number of writhing compared to the blank group (writhing inhibition rate), which were specifically as follows: writhing inhibition rate (analgesic activity)=(average number of writhing times in the blank group-average number of writhing times in the experimental group)/average number of writhing times in the blank group×100%.
Median Effective Dose (ED50) Determination
The sample to be tested was dissolved with 0.1 mol/L HCl according to the amount of the substance ratio of 1:1, and diluted with physiological saline according to the proportional series to obtain at least 5 groups with different dose concentrations. The writhing inhibition rate of each dose group was tested according to the acetic acid-induced writhing method mentioned above. The obtained dose-writhing inhibition data was entered into the statistical product and service solutions (SPSS) software (version 17.2), and the ED50 of the sample to be tested was calculated through the Probit regression method.

CCN1C[C@]2(COC)CC[C@H](OC)[C@@]34C5C[C@]6(O)[C@@H](OC)C[C@@](OC)(C5[C@H]6OC(=O)c5ccc(OC)cc5)C([C@H](OC)C23)[C@@H]14 (stereo partly drawn) [Compound 1]
Acute toxicity (Kunming mice [1]): +
inhibition in vivo at 0.05 mg/kg (Kunming mice [2]): 25.5 ± 2.9%

CCO[C@]12C[C@H](OC)[C@@]3(O)CC(C1[C@H]3OC(=O)c1ccc(OC)cc1)[C@]13C4[C@@H](OC)C2[C@H]1N(CC)C[C@]4(COC)CC[C@@H]3OC (stereo partly drawn) [Compound 2]
Acute toxicity (Kunming mice [1]): +
inhibition in vivo at 0.05 mg/kg (Kunming mice [2]): 41.1 ± 1.8%

CCN1C[C@@]2(COC)C3[C@@H](OC)C4[C@@H]1[C@@]3(C1C[C@]3(O)[C@@H](OC)C[C@@]4(OC)C1[C@H]3O)[C@@H](OC)C[C@H]2O (stereo partly drawn) [Compound 3]
Acute toxicity (Kunming mice [1]): −
inhibition in vivo at 0.05 mg/kg (Kunming mice [2]): 9.78 ± 1.9%

CCO[C@]12C[C@H](OC)[C@@]3(O)CC(C1[C@H]3O)[C@]13C4[C@@H](OC)C2[C@H]1N(CC)C[C@]4(COC)CC[C@@H]3OC (stereo partly drawn) [Compound 4]
Acute toxicity (Kunming mice [1]): −
inhibition in vivo at 0.05 mg/kg (Kunming mice [2]): 5.63 ± 1.1%

CCO[C@]12C[C@H](OC)[C@@]3(OC(=O)C(C)Cl)CC(C1[C@H]3OC(=O)C(C)Cl)[C@]13C4[C@@H](OC)C2[C@H]1N(CC)C[C@]4(COC)CC[C@@H]3OC (stereo partly drawn) [Compound 7]
Acute toxicity (Kunming mice [1]): −
inhibition in vivo at 0.05 mg/kg (Kunming mice [2]): 22.8 ± 3.3%

CCO[C@]12C[C@H](OC)[C@@]3(OC(=O)C4CC4)CC(C1[C@H]3OC(=O)C1CC1)[C@]13C4[C@@H](OC)C2[C@H]1N(CC)C[C@]4(COC)CC[C@@H]3OC (stereo partly drawn) [Compound 8]
Acute toxicity (Kunming mice [1]): −
inhibition in vivo at 0.05 mg/kg (Kunming mice [2]): 37.1 ± 1.2%

CCN1C[C@]2(COC)CC[C@H](OC)[C@@]34C5C[C@]6(OC(=O)c7ccc(OC)cc7)[C@@H](OC)C[C@@](OC(C)=O)(C5[C@H]6OC(=O)c5ccc(OC)cc5)C([C@H](OC)C23)[C@@H]14 (stereo partly drawn) [Compound 9]
Acute toxicity (Kunming mice [1]): −
inhibition in vivo at 0.05 mg/kg (Kunming mice [2]): 33.5 ± 1.9%

CCN1C[C@]2(COC)CC[C@H](OC)[C@@]34C5C[C@]6(OC(=O)C7CC7)[C@@H](OC)C[C@@](OC(C)=O)(C5[C@H]6OC(=O)c5ccc(OC)cc5)C([C@H](OC)C23)[C@@H]14 (stereo partly drawn) [Compound 10]
Acute toxicity (Kunming mice [1]): −
inhibition in vivo at 0.05 mg/kg (Kunming mice [2]): 15.2 ± 1.9%

CCN1C[C@]2(COC)CC[C@H](OC)[C@@]34C5C[C@]6(OC(=O)C7CCCCC7)[C@@H](OC)C[C@@](OC(C)=O)(C5[C@H]6OC(=O)c5ccc(OC)cc5)C([C@H](OC)C23)[C@@H]14 (stereo partly drawn) [Compound 11]
Acute toxicity (Kunming mice [1]): −
inhibition in vivo at 0.05 mg/kg (Kunming mice [2]): 35.1 ± 1.2%

CCO[C@]12C[C@H](OC)[C@@]3(OC(=O)C4CC4)CC(C1[C@H]3OC(=O)c1ccc(OC)cc1)[C@]13C4[C@@H](OC)C2[C@H]1N(CC)C[C@]4(COC)CC[C@@H]3OC (stereo partly drawn) [Compound 16]
Acute toxicity (Kunming mice [1]): −
inhibition in vivo at 0.05 mg/kg (Kunming mice [2]): 36.7 ± 1.2%

CCO[C@]12C[C@H](OC)[C@@]3(OC(=O)c4ccc(Cl)s4)CC(C1[C@H]3OC(=O)c1ccc(Cl)s1)[C@]13C4[C@@H](OC)C2[C@H]1N(CC)C[C@]4(COC)CC[C@@H]3OC (stereo partly drawn) [Compound 18]
Acute toxicity (Kunming mice [1]): −
inhibition in vivo at 0.05 mg/kg (Kunming mice [2]): 13.4 ± 0.6%

CCO[C@]12C[C@H](OC)[C@@]3(OC(=O)c4cccs4)CC(C1[C@H]3OC(=O)c1ccc(OC)cc1)[C@]13C4[C@@H](OC)C2[C@H]1N(CC)C[C@]4(COC)CC[C@@H]3OC (stereo partly drawn) [Compound 19]
Acute toxicity (Kunming mice [1]): −
inhibition in vivo at 0.05 mg/kg (Kunming mice [2]): 7.13 ± 2.8%

CCO[C@]12C[C@H](OC)[C@@]3(OC(=O)c4ccc(Cl)s4)CC(C1[C@H]3OC(=O)c1ccc(OC)cc1)[C@]13C4[C@@H](OC)C2[C@H]1N(CC)C[C@]4(COC)CC[C@@H]3OC (stereo partly drawn) [Compound 20]
Acute toxicity (Kunming mice [1]): −
inhibition in vivo at 0.05 mg/kg (Kunming mice [2]): 0%

CCN1C[C@]2(COC)CC[C@H](OC)[C@@]34C5C[C@]6(OC(=O)c7cccs7)[C@@H](OC)C[C@@](OC(C)=O)(C5[C@H]6OC(=O)c5ccc(OC)cc5)C([C@H](OC)C23)[C@@H]14 (stereo partly drawn) [Compound 21]
Acute toxicity (Kunming mice [1]): −
inhibition in vivo at 0.05 mg/kg (Kunming mice [2]): 0%

CCN1C[C@]2(COC)CC[C@H](OC)[C@@]34C5C[C@]6(OC(=O)c7ccc(Cl)s7)[C@@H](OC)C[C@@](OC(C)=O)(C5[C@H]6OC(=O)c5ccc(OC)cc5)C([C@H](OC)C23)[C@@H]14 (stereo partly drawn) [Compound 22]
Acute toxicity (Kunming mice [1]): −
inhibition in vivo at 0.05 mg/kg (Kunming mice [2]): 6.27 ± 2.3%

CCN1C[C@]2(COC)CC[C@H](OC)[C@@]34C5C[C@]6(OC(=O)C7CCOCC7)[C@@H](OC)C[C@@](OC(C)=O)(C5[C@H]6OC(=O)c5ccc(OC)cc5)C([C@H](OC)C23)[C@@H]14 (stereo partly drawn) [Compound 25]
Acute toxicity (Kunming mice [1]): −
inhibition in vivo at 0.05 mg/kg (Kunming mice [2]): 23 ± 0.8%

CCN1C[C@]2(COC)CC[C@H](OC)[C@@]34C5C[C@]6(OC(=O)C7CCOCC7)[C@@H](OC)C[C@@](OC)(C5[C@H]6OC(=O)C5CCOCC5)C([C@H](OC)C23)[C@@H]14 (stereo partly drawn) [Compound 26]
Acute toxicity (Kunming mice [1]): −
inhibition in vivo at 0.05 mg/kg (Kunming mice [2]): 30.5 ± 1%

CCN1C[C@]2(COC)CC[C@H](OC)[C@@]34C5C[C@]6(OC(=O)c7cccnc7)[C@@H](OC)C[C@@](OC)(C5[C@H]6OC(=O)c5cccnc5)C([C@H](OC)C23)[C@@H]14 (stereo partly drawn) [Compound 30]
Acute toxicity (Kunming mice [1]): −
inhibition in vivo at 0.05 mg/kg (Kunming mice [2]): 31.1 ± 2.4%

CCN1C[C@]2(COC)CC[C@H](OC)[C@@]34C5C[C@]6(OC(=O)c7ccc(OC)cc7)[C@@H](OC)C[C@@](OC)(C5[C@H]6OC(=O)c5ccc(OC)cc5)C([C@H](OC)C23)[C@@H]14 (stereo partly drawn) [Compound 31]
Acute toxicity (Kunming mice [1]): −
inhibition in vivo at 0.05 mg/kg (Kunming mice [2]): 17 ± 2.2%

CCN1C[C@]2(COC)CC[C@H](OC)[C@@]34C5C[C@]6(OC(=O)c7ccco7)[C@@H](OC)C[C@@](OC)(C5[C@H]6OC(=O)c5ccco5)C([C@H](OC)C23)[C@@H]14 (stereo partly drawn) [Compound 32]
Acute toxicity (Kunming mice [1]): −
inhibition in vivo at 0.05 mg/kg (Kunming mice [2]): 37.3 ± 1.4%

CCN1C[C@]2(COC)CC[C@H](OC)[C@@]34C5C[C@]6(OC(=O)c7ccco7)[C@@H](OC)C[C@@](OC)(C5[C@H]6OC(=O)c5ccc(OC)cc5)C([C@H](OC)C23)[C@@H]14 (stereo partly drawn) [Compound 33]
Acute toxicity (Kunming mice [1]): −
inhibition in vivo at 0.05 mg/kg (Kunming mice [2]): 30.2 ± 2.6%

CCN1C[C@]2(COC)CC[C@H](OC)[C@@]34C5C[C@]6(OC(=O)C7CCCCC7)[C@@H](OC)C[C@@](OC)(C5[C@H]6OC(=O)C5CCCCC5)C([C@H](OC)C23)[C@@H]14 (stereo partly drawn) [Compound 34]
Acute toxicity (Kunming mice [1]): −
inhibition in vivo at 0.05 mg/kg (Kunming mice [2]): 37 ± 1.4%

CCOc1ccc(C(=O)O[C@@H]2C3C4C[C@]2(OC(=O)c2ccc(OCC)cc2)[C@@H](OC)C[C@]3(OCC)C2[C@H](OC)C3[C@@]5(COC)CC[C@H](OC)[C@@]43[C@@H]2N(CC)C5)cc1 (stereo partly drawn) [Compound 35]
Acute toxicity (Kunming mice [1]): −
inhibition in vivo at 0.05 mg/kg (Kunming mice [2]): 0%

CCOc1ccc(C(=O)O[C@]23CC4C([C@H]2OC(=O)c2ccc(OC)cc2)[C@](OCC)(C[C@@H]3OC)C2[C@H](OC)C3[C@@]5(COC)CC[C@H](OC)[C@@]43[C@@H]2N(CC)C5)cc1 (stereo partly drawn) [Compound 36]
Acute toxicity (Kunming mice [1]): −
inhibition in vivo at 0.05 mg/kg (Kunming mice [2]): 13.6 ± 2.5%
